These results are taken from article PMC11239005, “Preclinical studies of RA475, a guanidine-substituted spirocyclic candidate RPN13/ADRM1 inhibitor for treatment of ovarian cancer” (PLOS ONE, 2024).

One data set concerns the target T1, RPN13 (Homo sapiens, UniProt Q16186).
T1 construct: performed the labeling assay after treating ovarian cancer cell lysates (ES2 and SKOV3) in the presence of titrated doses of RA475; endogenous in cells; host or cells: ES2 and SKOV3 ovarian cancer cell lysates
The experiment in a line: Up284B competition labelling in ES2 and SKOV3 cell lysate. The data set is classed as binding. Conditions: titrated RA475, bortezomib 1 μM, Up284B 5 μM. Here is the method: Clarified cell lysate in MPER buffer (Pierce) was pretreated with streptavidin-coated magnetic beads for 45 min at 4°C to deplete non-specific biotinylated proteins in the cell lysate. […] Next, the samples were mixed with Laemmli sample buffer (BioRad) and boiled for 5 min. The proteins were separated using a 4–15% Bio-Rad Mini-PROTEAN SDS-PAGE gel (1 h at 100 V), and transferred to PVDF membrane overnight at 4°C (24 V). The membrane was blocked with 5% (w/v) BSA in phosphate buffered saline containing 0.1% (v/v) Tween 20 (PBST) for 1 h at RT, and washed for 20 min (3X with PBST). Then the membrane was probed with HRP-streptavidin (1:10,000 in PBST) for 1 h at RT, washed for 30 min (3X with PBST), and developed using HyGLO chemiluminescent detection reagent (Denville) and visualized using a Biorad Chemidoc imager.
Fig 2 RA475 binds to RPN13 and induces rapid apoptosis. […] C, D) RA475 competition labelling experiment. C) ES2 D) SKOV3 clarified cell lysate (40 μg/sample) in MPER buffer was pretreated with streptavidin-coated magnetic beads for 45 min at 4°C to deplete non-specific biotinylated proteins in the cell lysate. […] Next, the samples were mixed with Laemmli sample buffer (BioRad) and boiled for 5 min. The proteins were separated using a 4–15% Bio-Rad Mini-PROTEAN SDS-PAGE gel (1 h at 100 V), and transferred to PVDF membrane overnight at 4°C (24 V). […]

Data set [1] can be described thus: Stability in mouse liver microsomes. The data set is classed as in vitro ADME. Conditions: with or without NADPH, over 1 h. Here is the method:
Human and mouse liver microsomes and NADPH regenerating system solutions were purchased from Corning Life Sciences (Tewsbury, MA). Human and mouse K2EDTA-treated plasma was purchased from BioIVT (Westbury, NY). Metabolic studies in liver microsomes (0.125 mg/mL) were conducted in 1x PBS (pH 7.4), NADPH-generating system, and 10 μM RA475 in a final volume of 250 μL. An incubation mixture with or without NADPH-generating system, as well as a neat solution prepared without microsomes and NADPH-generating system was used. RA475 was added at the same concentration level into human and mouse EDTA plasma. All reactions were initiated with the addition of RA475. Incubations were performed in glass tubes maintained at 37°C in a shaker bath. At 0, 30, and 60 min, 10 μL samples were withdrawn from the reaction mixture, and 0.5 mL of acetonitrile containing internal standard was added to each. Samples were vortex-mixed and subjected to centrifugation for 5 min at 1430 x g. A 10 μL aliquot of the supernatant was injected onto the LC-MS/MS instrument for qualitative analysis using a temperature-controlled autosampling device operating at 5°C (See Pharmacokinetic section).
For orientation: Microsomes from liver hold many membrane-bound enzymes, among them those of drug oxidation.

T1 sequence (Q16186 whole entry): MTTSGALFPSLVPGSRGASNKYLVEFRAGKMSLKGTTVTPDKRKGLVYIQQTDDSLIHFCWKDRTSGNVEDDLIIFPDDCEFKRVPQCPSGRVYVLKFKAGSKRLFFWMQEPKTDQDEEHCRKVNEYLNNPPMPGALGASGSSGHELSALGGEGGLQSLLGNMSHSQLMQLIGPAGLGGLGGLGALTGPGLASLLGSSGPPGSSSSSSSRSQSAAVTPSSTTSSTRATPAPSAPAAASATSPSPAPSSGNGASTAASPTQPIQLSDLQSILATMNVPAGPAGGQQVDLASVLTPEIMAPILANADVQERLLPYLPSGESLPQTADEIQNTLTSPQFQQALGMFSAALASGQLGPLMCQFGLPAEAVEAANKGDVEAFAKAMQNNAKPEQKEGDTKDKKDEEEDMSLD

As for `Cl.Cl.N#Cc1ccc(/C=C2/C(=O)/C(=C/c3ccc(C#N)cc3)C23CCN(C(=N)N)CC3)cc1` [RA475, 1,3-bis((E)-4-cyanobenzylidene)-2-oxo-7-azaspiro[3.5]nonane-7-carboximidamide dihydrochloride], at RPN13, the “competition with Up284B for binding to RPN13” value was “efficiently competes”. Also, in data set [1], the “degradation in liver microsomes” value is recorded as under 10%.
